Data taken from patent publication US6355799B1, “Substituted benzene compounds, process for their preparation, and herbicidal and defoliant compositions containing them” (ISK Americas Incorporated, priority 1997, dated 2002).

Experiments:
Type in all cases: in vivo
[1] = system: redroot pigweed (Amaranthus retroflexus, AMARE); assay: Pre-emerge test, greenhouse herbicide activity screening; settings: pre-emerge, phytotoxicity rating 0-100 at 14 days after application
Summary of the method: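 Visual ratings on a 0-100 scale (0 no damage, 100 all plants dead) were taken at 14 days after treatment. Rates of 15-1000 g ai/ha in acetone, 187 l/ha, were sprayed onto soil one day after planting (pre-emerge) or onto 2-3 leaf plants with 0.25% v/v surfactant (post-emerge).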

[2] = system: barnyardgrass (Echinochloa crus-galli, ECHCG); assay: as above; settings: pre-emerge, phytotoxicity rating 0-100 at 14 days after application
Summary of the method: (§1)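 Compounds in acetone were track-sprayed at 15-1000 g ai/ha (187 l/ha) on sandy loam pots: pre-emerge one day after seeding, post-emerge at 2-3 leaf stage with 0.25% v/v non-ionic surfactant. Phytotoxicity was rated 14 days later on a 0 (no damage) to 100 (complete death) scale.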

[3] = system: green foxtail (Setaria viridis, SETVI); assay: as above; settings: pre-emerge, phytotoxicity rating 0-100 at 14 days after application
Summary of the method: as §1

[4] = system: ivyleaf morningglory (Ipomoea hederacea, IPOHE); assay: as above; settings: pre-emerge, phytotoxicity rating 0-100 at 14 days after application
Summary of the method: as §1

[5] = system: johnsongrass (Sorghum halepense, SORHA); assay: as above; settings: pre-emerge, phytotoxicity rating 0-100 at 14 days after application
Summary of the method: as §1

[6] = system: lambsquarters (Chenopodium album, CHEAL); assay: as above; settings: pre-emerge, phytotoxicity rating 0-100 at 14 days after application
Summary of the method: as §1

[7] = system: large crabgrass (Digitaria sanguinalis, DIGSA); assay: as above; settings: pre-emerge, phytotoxicity rating 0-100 at 14 days after application
Summary of the method: as §1

[8] = system: sicklepod (Cassia obtusifolia, CASOB); assay: as above; settings: pre-emerge, phytotoxicity rating 0-100 at 14 days after application
Summary of the method: as §1

[9] = system: velvetleaf (Abutilon theophrasti, ABUTH); assay: as above; settings: pre-emerge, phytotoxicity rating 0-100 at 14 days after application
Summary of the method: as §1

[10] = system: field corn (Zea mays L., var. Dekalb 535, CORN); assay: Pre-emerge test, crop safety; settings: crop damage, pre-emerge, phytotoxicity rating 0-100 at 14 days after application
Summary of the method: (§2)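 Applied at 15–1000 g ai/ha from acetone in 187 l/ha spray volume. Post-emergence applications included 0.25% v/v non-ionic surfactant and reached plants sown 8–21 days before. Pre-emergence applications were incorporated by surface watering. Efficacy or crop damage was rated on a 0–100 scale after 14 days.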

[11] = system: upland rice (Oryza sp., var. Tebonnet, RICE); assay: Pre-emerge test, crop safety; settings: crop damage, pre-emerge, phytotoxicity rating 0-100 at 14 days after application
Summary of the method: as §2

[12] = system: barnyardgrass (Echinochloa crus-galli, ECHCG); assay: Post-emerge test, greenhouse herbicide activity screening; settings: post-emerge, phytotoxicity rating 0-100 at 14 days after application
Summary of the method: (§3)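 Fourteen days after spraying, crop and weed injury was graded visually from 0, no effect, to 100, every plant dead. Test substances were dissolved in acetone and applied at 15–1000 g ai/ha with a flat-fan nozzle. Application was either pre-emergence, one day after sowing, or post-emergence at the 2–3 leaf stage.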

[13] = system: green foxtail (Setaria viridis, SETVI); assay: as above; settings: post-emerge, phytotoxicity rating 0-100 at 14 days after application
Summary of the method: as §3

[14] = system: ivyleaf morningglory (Ipomoea hederacea, IPOHE); assay: as above; settings: post-emerge, phytotoxicity rating 0-100 at 14 days after application
Summary of the method: as §3

[15] = system: johnsongrass (Sorghum halepense, SORHA); assay: as above; settings: post-emerge, phytotoxicity rating 0-100 at 14 days after application
Summary of the method: as §3

[16] = system: lambsquarters (Chenopodium album, CHEAL); assay: as above; settings: post-emerge, phytotoxicity rating 0-100 at 14 days after application
Summary of the method: as §3

[17] = system: large crabgrass (Digitaria sanguinalis, DIGSA); assay: as above; settings: post-emerge, phytotoxicity rating 0-100 at 14 days after application
Summary of the method: as §3

[18] = system: redroot pigweed (Amaranthus retroflexus, AMARE); assay: as above; settings: post-emerge, phytotoxicity rating 0-100 at 14 days after application
Summary of the method: as §3

[19] = system: sicklepod (Cassia obtusifolia, CASOB); assay: as above; settings: post-emerge, phytotoxicity rating 0-100 at 14 days after application
Summary of the method: as §3

[20] = system: velvetleaf (Abutilon theophrasti, ABUTH); assay: as above; settings: post-emerge, phytotoxicity rating 0-100 at 14 days after application
Summary of the method: as §3

[21] = system: field corn (Zea mays L., var. Dekalb 535, CORN); assay: Post-emerge test, crop safety; settings: post-emerge, crop damage rating 0-100 at 14 days after application
Summary of the method: as §1

[22] = system: upland rice (Oryza sp., var. Tebonnet, RICE); assay: Post-emerge test, crop safety; settings: post-emerge, crop damage rating 0-100 at 14 days after application
Summary of the method: as §1

## Cc1c(Cl)cc(F)c(-n2c(=O)cc(C(F)(F)F)n(C)c2=O)c1NC(=O)OCc1ccc(Cl)cc1Cl [4-62]
[1]; rate 63 g ai/ha
  Pre-emerge Herbicidal Activity AMARE: 100
[1]; rate 250 g ai/ha
  Pre-emerge Herbicidal Activity AMARE: 100
[2]; rate 63 g ai/ha
  Pre-emerge Herbicidal Activity ECHCG: 10
[2]; rate 250 g ai/ha
  Pre-emerge Herbicidal Activity ECHCG: 60
[3]; rate 63 g ai/ha
  Pre-emerge Herbicidal Activity SETVI: 80
[3]; rate 250 g ai/ha
  Pre-emerge Herbicidal Activity SETVI: 100
[4]; rate 63 g ai/ha
  Pre-emerge Herbicidal Activity IPOHE: 60
[4]; rate 250 g ai/ha
  Pre-emerge Herbicidal Activity IPOHE: 30
[5]; rate 63 g ai/ha
  Pre-emerge Herbicidal Activity SORHA: 10
[5]; rate 250 g ai/ha
  Pre-emerge Herbicidal Activity SORHA: 50
[6]; rate 63 g ai/ha
  Pre-emerge Herbicidal Activity CHEAL: 100
[6]; rate 250 g ai/ha
  Pre-emerge Herbicidal Activity CHEAL: 100
[7]; rate 63 g ai/ha
  Pre-emerge Herbicidal Activity DIGSA: 50
[7]; rate 250 g ai/ha
  Pre-emerge Herbicidal Activity DIGSA: 90
[8]; rate 63 g ai/ha
  Pre-emerge Herbicidal Activity CASOB: 50
[8]; rate 250 g ai/ha
  Pre-emerge Herbicidal Activity CASOB: 100
[9]; rate 63 g ai/ha
  Pre-emerge Herbicidal Activity ABUTH: 100
[9]; rate 250 g ai/ha
  Pre-emerge Herbicidal Activity ABUTH: 100
[10]; rate 63 g ai/ha
  Pre-emerge Herbicidal Activity CORN: 0
[10]; rate 250 g ai/ha
  Pre-emerge Herbicidal Activity CORN: 10
[11]; rate 63 g ai/ha
  Pre-emerge Herbicidal Activity RICE: 10
[11]; rate 250 g ai/ha
  Pre-emerge Herbicidal Activity RICE: 70
[12]; 63 g ai/ha
  Post-emerge Herbicidal Activity ECHCG: 20
[12]; 250 g ai/ha
  Post-emerge Herbicidal Activity ECHCG: 40
[13]; 63 g ai/ha
  Post-emerge Herbicidal Activity SETVI: 60
[13]; 250 g ai/ha
  Post-emerge Herbicidal Activity SETVI: 80
[14]; 63 g ai/ha
  Post-emerge Herbicidal Activity IPOHE: 100
[14]; 250 g ai/ha
  Post-emerge Herbicidal Activity IPOHE: 100
[15]; 63 g ai/ha
  Post-emerge Herbicidal Activity SORHA: 30
[15]; 250 g ai/ha
  Post-emerge Herbicidal Activity SORHA: 30
[16]; 63 g ai/ha
  Post-emerge Herbicidal Activity CHEAL: 100
[16]; 250 g ai/ha
  Post-emerge Herbicidal Activity CHEAL: 100
[17]; 63 g ai/ha
  Post-emerge Herbicidal Activity DIGSA: 10
[17]; 250 g ai/ha
  Post-emerge Herbicidal Activity DIGSA: 50
[18]; 63 g ai/ha
  Post-emerge Herbicidal Activity AMARE: 100
[18]; 250 g ai/ha
  Post-emerge Herbicidal Activity AMARE: 100
[19]; 63 g ai/ha
  Post-emerge Herbicidal Activity CASOB: 90
[19]; 250 g ai/ha
  Post-emerge Herbicidal Activity CASOB: 100
[20]; 63 g ai/ha
  Post-emerge Herbicidal Activity ABUTH: 100
[20]; 250 g ai/ha
  Post-emerge Herbicidal Activity ABUTH: 100
[21]; 63 g ai/ha
  Post-emerge Herbicidal Activity CORN: 30
[21]; 250 g ai/ha
  Post-emerge Herbicidal Activity CORN: 45
[22]; 63 g ai/ha
  Post-emerge Herbicidal Activity RICE: 30
[22]; 250 g ai/ha
  Post-emerge Herbicidal Activity RICE: 30
